Reference: ChEMBL document CHEMBL4145470, “Efficient synthesis and first regioselective C-6 direct arylation of imidazo[2,1-c][1,2,4]triazine scaffold and their evaluation in H2O2-induced oxidative stress” (Eur J Med Chem, 2018)
Activity calls are given as the source filed them. The calls are words filed in the database; no cut-off is given here.

Tests used:
[1] = system: SH-SY5Y; assay: Cytoprotective activity against H2O2-induced oxidative stress in human SH-SY5Y cells assessed as cell viability at 0.1 uM preincubated for 24 hrs followed by H2O2 addition and measured after 1 hr by MTT assay (reference value: 37.88 +/- 8.52%); type: functional; conditions: read-out: Activity
[2] = system: SH-SY5Y; assay: Cytoprotective activity against H2O2-induced oxidative stress in human SH-SY5Y cells assessed as cell viability at 1 uM preincubated for 24 hrs followed by H2O2 addition and measured after 1 hr by MTT assay (reference value: 37.88 +/- 8.52%); type: functional; conditions: read-out: Activity
[3] = system: SH-SY5Y; assay: Cytoprotective activity against H2O2-induced oxidative stress in human SH-SY5Y cells assessed as cell viability at 10 uM preincubated for 24 hrs followed by H2O2 addition and measured after 1 hr by MTT assay (reference value: 37.88 +/- 8.52%); type: functional; conditions: read-out: Activity
[4] = system: SH-SY5Y; assay: Cytoprotective activity against H2O2-induced oxidative stress in human SH-SY5Y cells assessed as increase in cell viability preincubated for 24 hrs followed by H2O2 addition and measured after 1 hr by MTT assay; type: functional, cell-based
[5] = system: SH-SY5Y; assay: Cytotoxicity against human SH-SY5Y cells at 1 to 10 uM after 24 hrs by MTT assay; type: cell-based
[6] = target: RAC-alpha serine/threonine-protein kinase (Homo sapiens) (UniProt P31749); assay: Induction of Akt phosphorylation in H2O2-treated human SH-SY5Y cells at 0.1 uM by ELISA; type: cell-based
Chain of RAC-alpha serine/threonine-protein kinase (Homo sapiens) (P31749 whole entry): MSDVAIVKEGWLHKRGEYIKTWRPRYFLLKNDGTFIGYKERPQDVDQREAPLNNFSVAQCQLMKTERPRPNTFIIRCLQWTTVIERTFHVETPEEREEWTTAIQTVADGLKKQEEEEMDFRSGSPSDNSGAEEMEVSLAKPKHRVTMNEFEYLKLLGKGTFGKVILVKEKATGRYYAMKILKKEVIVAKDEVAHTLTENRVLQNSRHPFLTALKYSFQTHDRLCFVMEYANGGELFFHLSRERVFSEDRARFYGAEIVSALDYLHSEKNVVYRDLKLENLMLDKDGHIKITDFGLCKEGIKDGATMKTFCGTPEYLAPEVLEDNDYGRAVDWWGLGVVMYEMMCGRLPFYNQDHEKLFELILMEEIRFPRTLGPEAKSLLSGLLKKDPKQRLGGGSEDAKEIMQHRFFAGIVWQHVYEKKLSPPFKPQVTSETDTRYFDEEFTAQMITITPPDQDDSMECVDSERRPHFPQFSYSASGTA

[7] = system: SH-SY5Y; assay: Cytoprotective activity against H2O2-induced apoptosis in human SH-SY5Y cells assessed as decrease in Bax levels at 0.1 uM preincubated for 24 hrs followed by H2O2 addition measured after 1 hr by Western blot analysis; type: functional, cell-based
[8] = target: RAC-alpha serine/threonine-protein kinase (Homo sapiens) (UniProt P31749); assay: Induction of Akt phosphorylation in H2O2-treated human SH-SY5Y cells assessed as increase in pBad levels at 0.1 uM by ELISA; type: cell-based
[9] = target: Eukaryotic translation initiation factor 2 subunit 1 (Homo sapiens) (UniProt P05198); assay: Inhibition of H2O2-induced eIF2alpha phosphorylation in human SH-SY5Y cells at 0.1 uM; type: cell-based
Chain of Eukaryotic translation initiation factor 2 subunit 1 (Homo sapiens) (P05198 whole entry): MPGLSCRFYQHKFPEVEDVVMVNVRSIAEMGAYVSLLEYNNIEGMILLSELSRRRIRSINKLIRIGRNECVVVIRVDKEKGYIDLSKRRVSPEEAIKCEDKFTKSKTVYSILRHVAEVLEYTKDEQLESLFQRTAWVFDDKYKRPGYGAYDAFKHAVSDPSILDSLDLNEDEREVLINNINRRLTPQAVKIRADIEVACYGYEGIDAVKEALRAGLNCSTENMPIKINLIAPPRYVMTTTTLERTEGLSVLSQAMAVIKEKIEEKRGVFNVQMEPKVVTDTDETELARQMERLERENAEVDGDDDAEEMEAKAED

[10] = system: SH-SY5Y; assay: Cytoprotective activity against H2O2-induced apoptosis in human SH-SY5Y cells assessed as decrease in Bax levels at 1 uM preincubated for 24 hrs followed by H2O2 addition measured after 1 hr by Western blot analysis; type: functional, cell-based
[11] = system: SH-SY5Y; assay: Cytoprotective activity against H2O2-induced apoptosis in human SH-SY5Y cells assessed as increase in Bcl-2/Bax ratio at 1 uM preincubated for 24 hrs followed by H2O2 addition measured after 1 hr by Western blot analysis; type: functional, cell-based
[12] = system: SH-SY5Y; assay: Cytoprotective activity against H2O2-induced apoptosis in human SH-SY5Y cells assessed as relative Bcl-2 levels at 1 uM preincubated for 24 hrs followed by H2O2 addition measured after 1 hr by Western blot analysis (reference value: 2.084 +/- 0.078); type: functional
[13] = target: Eukaryotic translation initiation factor 2 subunit 1 (Homo sapiens) (UniProt P05198); assay: Inhibition of H2O2-induced eIF2alpha phosphorylation in human SH-SY5Y cells at 1 uM; type: cell-based
[14] = system: SH-SY5Y; assay: Cytoprotective activity against H2O2-induced apoptosis in human SH-SY5Y cells assessed as increase in Bcl-2 levels at 0.1 uM preincubated for 24 hrs followed by H2O2 addition measured after 1 hr by Western blot analysis; type: functional, cell-based
[15] = system: SH-SY5Y; assay: Cytoprotective activity against H2O2-induced apoptosis in human SH-SY5Y cells assessed as relative Bcl-2 levels at 10 uM preincubated for 24 hrs followed by H2O2 addition measured after 1 hr by Western blot analysis (reference value: 2.084 +/- 0.078); type: functional
[16] = target: T1, Mitogen-activated protein kinase; ERK1/ERK2 (Homo sapiens) (UniProt P27361+P28482); assay: Inhibition of H2O2-induced p44/42 MAPK phosphorylation in human SH-SY5Y cells at 10 uM; type: cell-based
T1 sequence (P27361 whole entry, looked up): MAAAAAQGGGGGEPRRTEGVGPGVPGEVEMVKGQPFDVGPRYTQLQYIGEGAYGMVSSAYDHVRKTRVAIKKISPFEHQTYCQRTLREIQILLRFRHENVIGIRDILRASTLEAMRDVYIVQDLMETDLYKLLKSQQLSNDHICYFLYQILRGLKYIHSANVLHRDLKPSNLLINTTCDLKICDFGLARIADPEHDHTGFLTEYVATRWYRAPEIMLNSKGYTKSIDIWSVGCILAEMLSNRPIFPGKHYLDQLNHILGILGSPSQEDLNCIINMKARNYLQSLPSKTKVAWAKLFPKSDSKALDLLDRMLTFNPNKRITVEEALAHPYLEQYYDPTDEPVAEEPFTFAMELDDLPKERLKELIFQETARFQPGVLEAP
T1 sequence (P28482 whole entry, looked up): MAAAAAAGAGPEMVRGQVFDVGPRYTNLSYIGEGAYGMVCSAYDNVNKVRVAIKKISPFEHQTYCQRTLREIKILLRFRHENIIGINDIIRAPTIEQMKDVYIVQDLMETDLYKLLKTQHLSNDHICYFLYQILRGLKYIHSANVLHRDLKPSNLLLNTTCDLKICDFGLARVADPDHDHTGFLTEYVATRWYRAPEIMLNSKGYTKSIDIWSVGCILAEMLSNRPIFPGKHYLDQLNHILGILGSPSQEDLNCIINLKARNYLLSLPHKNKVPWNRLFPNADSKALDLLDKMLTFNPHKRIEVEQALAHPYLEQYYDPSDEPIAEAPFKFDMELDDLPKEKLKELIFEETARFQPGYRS

[17] = system: SH-SY5Y; assay: Cytoprotective activity against H2O2-induced apoptosis in human SH-SY5Y cells assessed as increase in Bcl-2/Bax ratio at 10 uM preincubated for 24 hrs followed by H2O2 addition measured after 1 hr by Western blot analysis; type: functional, cell-based
[18] = target: RAC-alpha serine/threonine-protein kinase (Homo sapiens) (UniProt P31749); assay: Induction of Akt phosphorylation in H2O2-treated human SH-SY5Y cells at 1 uM by ELISA; type: cell-based
[19] = system: SH-SY5Y; assay: Cytoprotective activity against H2O2-induced apoptosis in human SH-SY5Y cells assessed as relative cleaved PARP levels at 1 uM (reference value: 0.725 +/- 0.06); type: functional
[20] = target: T2, MAP kinase p38 (Homo sapiens) (UniProt O15264+Q15759+Q16539+P53778); assay: Inhibition of H2O2-induced p38 MAPK phosphorylation in human SH-SY5Y cells at 1 uM; type: cell-based
[21] = Cytoprotective activity against H2O2-induced apoptosis in human SH-SY5Y cells assessed as relative cleaved caspase-7 levels at 1 uM (reference value: 1.025 +/- 0.120)
[22] = target: T1, Mitogen-activated protein kinase; ERK1/ERK2 (Homo sapiens); assay: Inhibition of H2O2-induced p44/42 MAPK phosphorylation in human SH-SY5Y cells at 1 uM; type: cell-based
[23] = system: SH-SY5Y; assay: Cytoprotective activity against H2O2-induced apoptosis in human SH-SY5Y cells assessed as relative cleaved caspase-3 levels at 1 uM (reference value: 0.875 +/- 0.035); type: functional
[24] = target: RAC-alpha serine/threonine-protein kinase (Homo sapiens) (UniProt P31749); assay: Induction of Akt phosphorylation in H2O2-treated human SH-SY5Y cells assessed as increase in pBad levels at 1 uM by ELISA; type: cell-based
[25] = target: T2, MAP kinase p38 (Homo sapiens); assay: Inhibition of H2O2-induced p38 MAPK phosphorylation in human SH-SY5Y cells at 0.1 uM; type: cell-based
[26] = system: SH-SY5Y; assay: Cytoprotective activity against H2O2-induced apoptosis in human SH-SY5Y cells assessed as relative Bcl-2 levels at 0.1 uM preincubated for 24 hrs followed by H2O2 addition measured after 1 hr by Western blot analysis (reference value: 2.084 +/- 0.078); type: functional
[27] = system: SH-SY5Y; assay: Cytoprotective activity against H2O2-induced apoptosis in human SH-SY5Y cells assessed as increase in Bcl-2/Bax ratio at 0.1 uM preincubated for 24 hrs followed by H2O2 addition measured after 1 hr by Western blot analysis; type: functional, cell-based
[28] = system: SH-SY5Y; assay: Cytoprotective activity against H2O2-induced apoptosis in human SH-SY5Y cells assessed as relative cleaved caspase-3 levels at 0.1 uM (reference value: 0.875 +/- 0.035); type: functional
[29] = system: SH-SY5Y; assay: Cytoprotective activity against H2O2-induced apoptosis in human SH-SY5Y cells assessed as relative cleaved PARP levels at 0.1 uM (reference value: 0.725 +/- 0.06); type: functional
[30] = system: SH-SY5Y; assay: Cytoprotective activity against H2O2-induced apoptosis in human SH-SY5Y cells assessed as relative cleaved caspase-7 levels at 0.1 uM (reference value: 1.025 +/- 0.120); type: functional
[31] = target: T1, Mitogen-activated protein kinase; ERK1/ERK2 (Homo sapiens); assay: Inhibition of H2O2-induced p44/42 MAPK phosphorylation in human SH-SY5Y cells at 0.1 uM; type: cell-based

SMILES	viability at 0.1 µM [1] [%]	viability at 1 µM [2] [%]	viability at 10 µM [3] [%]	Activity [4]	Activity [5]	Activity [6]	Activity [7]	Activity [8]	inhibition [9]	further results
COc1ccc(-c2nc3nnccn3c2-c2cccc(F)c2)cc1	54.6	51.3	66.4	Dose-dependent effect	Non-Toxic	–	–	–	–	–
COc1ccc(-c2nc3nnccn3c2-c2ccc([N+](=O)[O-])cc2)cc1	81.2	56	74.9	Dose-dependent effect	Non-Toxic	inactive	Active	inactive	inactive	–
COc1ccc(-c2nc3nnccn3c2-c2cccs2)cc1	44.6	70.7	68.4	Dose-dependent effect	Non-Toxic	Active	–	inactive	–	Activity [10]: inactive; Activity [11]: Active; fold change (FC) [12]: 2.955; inhibition [13]: inactive
COc1ccccc1-c1cn2ccnnc2n1	62.7	60.5	51.1	Dose-dependent effect	Non-Toxic	Active	Active	Active	inactive	Activity [14]: Active
COc1ccc(-c2nc3nnccn3c2-c2ccncc2)cc1	64.1	55.7	61.5	Dose-dependent effect	Non-Toxic	–	–	–	–	–
O=[N+]([O-])c1cccc(-c2cn3ccnnc3n2)c1	61.5	58.9	65.7	Dose-dependent effect	Non-Toxic	–	–	–	–	–
COc1ccc(-c2nc3nnccn3c2-c2ccc(OC)cc2)cc1	49.6	65.5	75.2	Dose-dependent effect	Non-Toxic	–	–	–	–	fold change (FC) [15]: 3.015; inhibition [16]: Active; Activity [17]: Active; inhibition [13]: inactive
COc1ccc(-c2nc3nnccn3c2-c2ccc(C)cc2)cc1	55.3	67.4	63.3	Dose-dependent effect	Non-Toxic	–	–	–	–	Activity [18]: Active; fold change (FC) [19]: 0.581; inhibition [20]: Active; fold change (FC) [21]: 0.856; inhibition [22]: Active; inhibition [13]: inactive; fold change (FC) [23]: 0.628; Activity [24]: Active
FC(F)(F)c1ccc(-c2cn3ccnnc3n2)cc1	85.1	59.1	60.8	Dose-dependent effect	Non-Toxic	–	Active	–	inactive	inhibition [25]: Active; fold change (FC) [26]: 2.923; Activity [27]: Active
COc1ccc(-c2nc3nnccn3c2-c2ccccc2C)cc1	60.7	73.8	72.4	Dose-dependent effect	Non-Toxic	–	–	–	–	Activity [10]: Active; inhibition [22]: Active; inhibition [13]: inactive
COc1cccc(-c2cn3ccnnc3n2)c1	73.8	62.8	65	Dose-dependent effect	Non-Toxic	–	Active	–	inactive	fold change (FC) [28]: 0.595; fold change (FC) [29]: 0.48; inhibition [25]: Active; fold change (FC) [30]: 0.815; inhibition [31]: Active
COc1ccc(-c2nc3nnccn3c2-c2ccc(C)c([N+](=O)[O-])c2)cc1	49.5	79.6	83.3	Dose-dependent effect	Non-Toxic	Active	–	Active	–	fold change (FC) [21]: 0.834; Activity [10]: Active; Activity [11]: Active; inhibition [22]: Active; fold change (FC) [12]: 2.398; inhibition [13]: inactive
COc1ccc(-c2nc3nnccn3c2-c2ccccc2)cc1	72.9	50.6	79.7	Dose-dependent effect	Non-Toxic	Active	Active	Active	inactive	Activity [14]: Active; Activity [27]: Active
COc1ccc(-c2cn3ccnnc3n2)cc1	73.9	71.3	60.9	Dose-dependent effect	Non-Toxic	–	Active	–	inactive	fold change (FC) [28]: 0.705; fold change (FC) [29]: 0.62; inhibition [31]: Active
COc1ccc(-c2nc3nnccn3c2-c2cccc(C#N)c2)cc1	66.6	55.5	54.3	Dose-dependent effect	Non-Toxic	–	–	–	inactive	–
c1ccc(-c2cn3ccnnc3n2)cc1	77.3	72.8	62.6	Dose-dependent effect	Non-Toxic	Active	inactive	Active	inactive	–
COc1ccc(-c2nc3nnccn3c2-c2ccc(OC(F)(F)F)cc2)cc1	78.6	54.8	66.8	Dose-dependent effect	Non-Toxic	Active	Active	Active	inactive	Activity [14]: Active; Activity [27]: Active
N#Cc1ccc(-c2cn3ccnnc3n2)cc1	67.1	65.4	54.2	Dose-dependent effect	Non-Toxic	–	–	–	–	–
